# pIC50: −log10 of the molar value.
# Assays:
# [1] = target: T1, Recombinant wild type LRRK2 protein (Homo sapiens, UniProt Q5S007); assay: LanthaScreen Kinase Activity Assay (TR-FRET), wild type LRRK2; type: biochemical; settings: class symbols; 25 μM ATP, 400 nM LRRKtide, 2.9 nM kinase, 60 min at room temperature; read-out: LRRK2 WT IC50
# T1 construct: purchased Life Technologies PR8604B
# Procedure, shortened: (§1)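 Recombinant wild-type or G2019S LRRK2 (2.9 nM final) phosphorylated fluorescein-LRRKtide (400 nM) with 25 μM ATP in 50 mM Tris pH 8.5, 5 mM MgCl2, 1 mM EGTA, 0.01% Brij-35, 2 mM DTT for 60 min at RT. After EDTA stop, Tb-anti-pERM TR-FRET (520/495 nm ratio) was read. IC50 values came from 11-point, 3-fold compound dilutions.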
# [2] = target: T2, Recombinant G2019S-LRRK2 protein (Homo sapiens, UniProt Q5S007, G2019S); assay: LanthaScreen Kinase Activity Assay (TR-FRET), G2019S-LRRK2; type: biochemical; settings: class symbols; 25 μM ATP, 400 nM LRRKtide, 2.9 nM kinase, 60 min at room temperature
# T2 construct: purchased Life Technologies PV4881
# Procedure, shortened: as §1
# T1 sequence (Q5S007 whole entry): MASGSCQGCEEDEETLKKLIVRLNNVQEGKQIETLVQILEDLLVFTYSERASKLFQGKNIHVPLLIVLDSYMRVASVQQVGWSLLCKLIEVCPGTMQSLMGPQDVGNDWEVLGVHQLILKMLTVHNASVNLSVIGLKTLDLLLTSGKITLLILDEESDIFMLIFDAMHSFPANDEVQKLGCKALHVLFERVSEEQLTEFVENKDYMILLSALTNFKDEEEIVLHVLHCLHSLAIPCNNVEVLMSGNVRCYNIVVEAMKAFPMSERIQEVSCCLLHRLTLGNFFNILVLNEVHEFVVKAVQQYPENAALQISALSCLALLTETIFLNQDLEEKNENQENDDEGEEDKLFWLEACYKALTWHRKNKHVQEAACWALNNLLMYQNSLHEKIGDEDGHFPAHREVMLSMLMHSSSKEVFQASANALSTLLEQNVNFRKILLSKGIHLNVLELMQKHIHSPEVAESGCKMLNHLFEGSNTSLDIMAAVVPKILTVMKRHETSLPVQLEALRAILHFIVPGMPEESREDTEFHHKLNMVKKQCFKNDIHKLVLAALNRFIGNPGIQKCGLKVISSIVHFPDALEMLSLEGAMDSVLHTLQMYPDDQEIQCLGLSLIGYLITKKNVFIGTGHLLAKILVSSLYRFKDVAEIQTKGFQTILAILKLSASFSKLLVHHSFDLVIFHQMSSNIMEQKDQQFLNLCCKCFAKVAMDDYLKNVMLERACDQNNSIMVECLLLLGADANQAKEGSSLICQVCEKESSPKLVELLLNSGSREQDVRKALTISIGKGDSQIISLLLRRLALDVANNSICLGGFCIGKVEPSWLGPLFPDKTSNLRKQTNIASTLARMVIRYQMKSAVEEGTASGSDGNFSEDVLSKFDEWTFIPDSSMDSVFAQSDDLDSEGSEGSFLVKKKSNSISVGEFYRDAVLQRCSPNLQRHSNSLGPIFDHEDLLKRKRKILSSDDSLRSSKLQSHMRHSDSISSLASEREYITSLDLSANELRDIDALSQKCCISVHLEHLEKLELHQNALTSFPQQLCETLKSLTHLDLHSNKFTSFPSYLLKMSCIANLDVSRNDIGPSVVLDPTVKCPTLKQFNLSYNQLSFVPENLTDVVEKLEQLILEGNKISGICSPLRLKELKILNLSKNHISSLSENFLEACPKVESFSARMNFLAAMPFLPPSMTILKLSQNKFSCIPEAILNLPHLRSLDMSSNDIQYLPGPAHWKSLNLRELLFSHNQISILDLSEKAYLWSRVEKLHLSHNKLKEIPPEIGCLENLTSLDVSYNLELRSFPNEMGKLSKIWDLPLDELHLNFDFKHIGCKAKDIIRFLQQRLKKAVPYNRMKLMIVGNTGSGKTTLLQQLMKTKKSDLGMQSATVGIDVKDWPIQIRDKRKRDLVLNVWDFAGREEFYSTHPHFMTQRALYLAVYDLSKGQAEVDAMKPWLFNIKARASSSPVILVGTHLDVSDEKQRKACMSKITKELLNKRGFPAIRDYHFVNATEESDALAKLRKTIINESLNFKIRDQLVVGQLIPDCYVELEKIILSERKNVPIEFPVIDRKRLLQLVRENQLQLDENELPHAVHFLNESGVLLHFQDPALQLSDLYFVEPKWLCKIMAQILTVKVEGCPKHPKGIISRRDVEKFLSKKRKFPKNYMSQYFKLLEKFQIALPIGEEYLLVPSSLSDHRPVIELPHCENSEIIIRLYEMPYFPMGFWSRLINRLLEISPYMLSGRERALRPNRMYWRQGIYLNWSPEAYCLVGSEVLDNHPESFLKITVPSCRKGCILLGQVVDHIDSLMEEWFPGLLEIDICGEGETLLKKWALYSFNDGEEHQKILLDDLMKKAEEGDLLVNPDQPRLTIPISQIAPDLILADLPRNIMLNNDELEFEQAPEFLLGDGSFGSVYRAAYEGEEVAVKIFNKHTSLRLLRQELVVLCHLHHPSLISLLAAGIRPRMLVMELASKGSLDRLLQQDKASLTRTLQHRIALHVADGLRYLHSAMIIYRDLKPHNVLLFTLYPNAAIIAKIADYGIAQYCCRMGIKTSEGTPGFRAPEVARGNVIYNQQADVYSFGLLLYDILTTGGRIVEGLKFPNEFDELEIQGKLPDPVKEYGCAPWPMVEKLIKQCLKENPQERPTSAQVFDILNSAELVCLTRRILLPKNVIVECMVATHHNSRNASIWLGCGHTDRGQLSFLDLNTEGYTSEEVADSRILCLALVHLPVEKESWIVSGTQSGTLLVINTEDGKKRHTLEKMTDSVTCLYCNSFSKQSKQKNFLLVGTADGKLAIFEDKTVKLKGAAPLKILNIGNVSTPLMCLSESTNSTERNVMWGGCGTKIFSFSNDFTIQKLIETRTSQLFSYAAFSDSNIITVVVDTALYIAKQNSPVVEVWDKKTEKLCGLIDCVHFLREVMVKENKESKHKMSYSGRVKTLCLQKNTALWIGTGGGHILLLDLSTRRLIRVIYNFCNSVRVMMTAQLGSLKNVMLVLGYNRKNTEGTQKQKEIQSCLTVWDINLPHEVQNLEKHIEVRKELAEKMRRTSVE
# T2 sequence (Q5S007 whole entry G2019S): as the sequence (Q5S007 whole entry) above, with G2019S counted along it
pIC50 [1],pIC50 [2],Compound
6.00 to 7.00,≥ 7.00,"COc1ccccc1-c1n[nH]c2ccc(NC(=O)c3c(C)cc4cnnn4c3C)cc12 [Example 46, N-(3-(2-Methoxyphenyl)-1H-indazol-5-yl)-5,7-dimethyl-[1,2,3]triazolo[1,5-a]pyridine-6-carboxamide]"
≥ 7.00,≥ 7.00,"CN(C)c1ccc(-c2n[nH]c3ccc(NC(=O)c4c(F)cc5c(cnn5C)c4F)cc23)cc1 [Example 87, N-(3-(4-(Dimethylamino)phenyl)-1H-indazol-5-yl)-4,6-difluoro-1-methyl-1H-indazole-5-carboxamide]"
≥ 7.00,≥ 7.00,"Cc1c(C(=O)Nc2ccc3[nH]nc(-c4ccccc4)c3c2)c(Cl)cn2cnnc12 [Example 59, 6-Chloro-8-methyl-N-(3-phenyl-1H-indazol-5-yl)-[1,2,4]triazolo[4,3-a]pyridine-7-carboxamide]"
5.00 to 6.00,6.00 to 7.00,"Cc1cccc(-c2n[nH]c3ccc(NC(=O)c4c(C)cc5cnnn5c4C)cc23)c1C [Example 47, N-(3-(2,3-Dimethylphenyl)-1H-indazol-5-yl)-5,7-dimethyl-[1,2,3]triazolo[1,5-a]pyridine-6-carboxamide]"
5.00 to 6.00,6.00 to 7.00,"Cc1cc2c(C)nnn2c(C)c1C(=O)Nc1ccc2[nH]nc(C)c2c1 [Example 65, 3,5,7-Trimethyl-N-(3-methyl-1H-indazol-5-yl)-[1,2,3]triazolo[1,5-a]pyridine-6-carboxamide]"
≥ 7.00,≥ 7.00,"Cn1ncc2c1CCC(C(=O)Nc1ccc3[nH]nc(-c4ccoc4)c3c1)C2 (single isomer, unassigned) [Example 161a]"
6.00 to 7.00,≥ 7.00,"Cc1nc2ccc(C(=O)Nc3ccc4[nH]nc(-c5ccoc5)c4c3)cc2o1 [Example 134, N-(3-(Furan-3-yl)-1H-indazol-5-yl)-2-methylbenzo[d]oxazole-6-carboxamide]"
≥ 7.00,≥ 7.00,"Cn1cc(-c2n[nH]c3ccc(NC(=O)c4c(F)cc5c(cnn5C)c4F)cc23)cn1 [Example 35, 4,6-Difluoro-1-methyl-N-(3-(1-methyl-1H-pyrazol-4-yl)-1H-indazol-5-yl)-1H-indazole-5-carboxamide]"
6.00 to 7.00,≥ 7.00,"Cc1cc2c(C)ncn2c(C)c1C(=O)Nc1ccc2[nH]nc(C)c2c1 [Example 148, 1,5,7-Trimethyl-N-(3-methyl-1H-indazol-5-yl)imidazo[1,5-a]pyridine-6-carboxamide]"
6.00 to 7.00,≥ 7.00,"Cc1c(C(=O)Nc2ccc3[nH]nc(-c4ccncc4)c3c2)ccc2[nH]nnc12 [Example 12, 4-Methyl-N-(3-(pyridin-4-yl)-1H-indazol-5-yl)-1H-benzo[d][1,2,3]triazole-5-carboxamide]"
5.00 to 6.00,≥ 7.00,"Cc1cc2cncn2c(C)c1C(=O)Nc1ccc2[nH]nc(C)c2c1 [Example 55, 5,7-Dimethyl-N-(3-methyl-1H-indazol-5-yl)imidazo[1,5-a]pyridine-6-carboxamide]"
6.00 to 7.00,≥ 7.00,"O=C(Nc1ccc2[nH]nc(-c3ccoc3)c2c1)c1nc2cnccc2s1 [Example 170, N-(3-(Furan-3-yl)-1H-indazol-5-yl)thiazolo[4,5-c]pyridine-2-carboxamide]"
6.00 to 7.00,≥ 7.00,"COc1ccncc1-c1n[nH]c2ccc(NC(=O)c3c(F)cc4c(cnn4C)c3F)cc12 [Example 102, 4,6-Difluoro-N-(3-(4-methoxypyridin-3-yl)-1H-indazol-5-yl)-1-methyl-1H-indazole-5-carboxamide]"
≥ 7.00,≥ 7.00,"Cc1cc(-c2n[nH]c3ccc(NC(=O)c4c(F)cc5c(cnn5C)c4F)cc23)ccn1 [Example 37, 4,6-Difluoro-1-methyl-N-(3-(2-methylpyridin-4-yl)-1H-indazol-5-yl)-1H-indazole-5-carboxamide]"
6.00 to 7.00,≥ 7.00,"Cc1cc2nncn2c(C)c1C(=O)Nc1ccc2[nH]nc(C)c2c1 [Example 61, 5,7-Dimethyl-N-(3-methyl-1H-indazol-5-yl)-[1,2,4]triazolo[4,3-a]pyridine-6-carboxamide]"
5.00 to 6.00,5.00 to 6.00,"O=C(Nc1ccc2[nH]nc(-c3ccoc3)c2c1)C1CCc2cncn2C1 (single isomer, unassigned) [Example 173b]"
6.00 to 7.00,≥ 7.00,"Cn1ncc2c(F)c(C(=O)Nc3ccc4[nH]nc(C#N)c4c3)c(F)cc21 [Example 105, N-(3-Cyano-1H-indazol-5-yl)-4,6-difluoro-1-methyl-1H-indazole-5-carboxamide]"

# — patent US20220162192A1 (ESCAPE Bio, Inc., priority 2019, published 2022)
